In ChEMBL document CHEMBL2073838, “Selectivity of the multidrug resistance modulator, LY335979, for P-glycoprotein and effect on cytochrome P-450 activities” (J Pharmacol Exp Ther, 1999):

Columns and labels:
[1] = biological target: ATP-binding cassette sub-family C member 2 (Homo sapiens, UniProt Q92887); assay: TP_TRANSPORTER: inhibition of LTC4 uptake (LTC4: 0.05 uM, MK571: 10 uM) in membrane vesicles from MRP2-expressing MDCK cells; format: functional, cell membranes, Membrane vesicle; conditions: dog
[2] = biological target: ATP-dependent translocase ABCB1 (Homo sapiens, UniProt P08183); assay: TP_TRANSPORTER: cell accumulation in CCRF-CEM and CEM/VLB100 cells; format: functional, cell-based
Chain of ATP-dependent translocase ABCB1 (P08183 whole entry): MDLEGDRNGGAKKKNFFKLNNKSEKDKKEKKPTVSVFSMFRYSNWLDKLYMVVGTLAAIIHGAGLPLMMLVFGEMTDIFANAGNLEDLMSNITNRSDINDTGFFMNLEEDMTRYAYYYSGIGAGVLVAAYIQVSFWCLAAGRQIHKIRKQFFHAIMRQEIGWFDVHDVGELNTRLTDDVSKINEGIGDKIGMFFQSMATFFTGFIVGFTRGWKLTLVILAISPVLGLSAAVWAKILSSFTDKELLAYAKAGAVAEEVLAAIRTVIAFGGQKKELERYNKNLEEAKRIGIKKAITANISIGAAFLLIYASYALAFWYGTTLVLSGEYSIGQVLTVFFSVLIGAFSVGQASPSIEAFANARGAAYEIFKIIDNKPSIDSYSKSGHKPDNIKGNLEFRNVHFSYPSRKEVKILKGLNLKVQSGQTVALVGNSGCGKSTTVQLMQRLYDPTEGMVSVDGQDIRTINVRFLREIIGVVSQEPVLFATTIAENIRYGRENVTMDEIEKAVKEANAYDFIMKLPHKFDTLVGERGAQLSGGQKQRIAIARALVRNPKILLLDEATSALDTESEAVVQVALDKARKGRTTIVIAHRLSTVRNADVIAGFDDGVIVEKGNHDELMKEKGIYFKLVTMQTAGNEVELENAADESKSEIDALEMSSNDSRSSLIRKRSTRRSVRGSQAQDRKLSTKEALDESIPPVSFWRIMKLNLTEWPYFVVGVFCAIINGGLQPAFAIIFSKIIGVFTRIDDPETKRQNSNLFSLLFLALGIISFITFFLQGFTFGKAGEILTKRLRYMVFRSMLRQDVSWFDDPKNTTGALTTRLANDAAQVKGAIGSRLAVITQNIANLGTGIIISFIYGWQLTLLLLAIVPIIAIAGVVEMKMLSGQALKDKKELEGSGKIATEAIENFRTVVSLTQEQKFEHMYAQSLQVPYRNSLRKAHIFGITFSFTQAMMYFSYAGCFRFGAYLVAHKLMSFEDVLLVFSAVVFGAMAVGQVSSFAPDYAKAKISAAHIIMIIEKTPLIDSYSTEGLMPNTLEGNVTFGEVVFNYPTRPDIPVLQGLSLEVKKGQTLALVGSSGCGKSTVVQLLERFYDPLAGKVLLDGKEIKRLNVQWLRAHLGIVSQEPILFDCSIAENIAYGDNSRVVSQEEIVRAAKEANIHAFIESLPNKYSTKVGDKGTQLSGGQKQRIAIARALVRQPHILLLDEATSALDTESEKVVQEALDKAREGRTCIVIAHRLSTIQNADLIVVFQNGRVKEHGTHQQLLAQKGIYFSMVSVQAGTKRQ

Chain of ATP-binding cassette sub-family C member 2 (Q92887 whole entry): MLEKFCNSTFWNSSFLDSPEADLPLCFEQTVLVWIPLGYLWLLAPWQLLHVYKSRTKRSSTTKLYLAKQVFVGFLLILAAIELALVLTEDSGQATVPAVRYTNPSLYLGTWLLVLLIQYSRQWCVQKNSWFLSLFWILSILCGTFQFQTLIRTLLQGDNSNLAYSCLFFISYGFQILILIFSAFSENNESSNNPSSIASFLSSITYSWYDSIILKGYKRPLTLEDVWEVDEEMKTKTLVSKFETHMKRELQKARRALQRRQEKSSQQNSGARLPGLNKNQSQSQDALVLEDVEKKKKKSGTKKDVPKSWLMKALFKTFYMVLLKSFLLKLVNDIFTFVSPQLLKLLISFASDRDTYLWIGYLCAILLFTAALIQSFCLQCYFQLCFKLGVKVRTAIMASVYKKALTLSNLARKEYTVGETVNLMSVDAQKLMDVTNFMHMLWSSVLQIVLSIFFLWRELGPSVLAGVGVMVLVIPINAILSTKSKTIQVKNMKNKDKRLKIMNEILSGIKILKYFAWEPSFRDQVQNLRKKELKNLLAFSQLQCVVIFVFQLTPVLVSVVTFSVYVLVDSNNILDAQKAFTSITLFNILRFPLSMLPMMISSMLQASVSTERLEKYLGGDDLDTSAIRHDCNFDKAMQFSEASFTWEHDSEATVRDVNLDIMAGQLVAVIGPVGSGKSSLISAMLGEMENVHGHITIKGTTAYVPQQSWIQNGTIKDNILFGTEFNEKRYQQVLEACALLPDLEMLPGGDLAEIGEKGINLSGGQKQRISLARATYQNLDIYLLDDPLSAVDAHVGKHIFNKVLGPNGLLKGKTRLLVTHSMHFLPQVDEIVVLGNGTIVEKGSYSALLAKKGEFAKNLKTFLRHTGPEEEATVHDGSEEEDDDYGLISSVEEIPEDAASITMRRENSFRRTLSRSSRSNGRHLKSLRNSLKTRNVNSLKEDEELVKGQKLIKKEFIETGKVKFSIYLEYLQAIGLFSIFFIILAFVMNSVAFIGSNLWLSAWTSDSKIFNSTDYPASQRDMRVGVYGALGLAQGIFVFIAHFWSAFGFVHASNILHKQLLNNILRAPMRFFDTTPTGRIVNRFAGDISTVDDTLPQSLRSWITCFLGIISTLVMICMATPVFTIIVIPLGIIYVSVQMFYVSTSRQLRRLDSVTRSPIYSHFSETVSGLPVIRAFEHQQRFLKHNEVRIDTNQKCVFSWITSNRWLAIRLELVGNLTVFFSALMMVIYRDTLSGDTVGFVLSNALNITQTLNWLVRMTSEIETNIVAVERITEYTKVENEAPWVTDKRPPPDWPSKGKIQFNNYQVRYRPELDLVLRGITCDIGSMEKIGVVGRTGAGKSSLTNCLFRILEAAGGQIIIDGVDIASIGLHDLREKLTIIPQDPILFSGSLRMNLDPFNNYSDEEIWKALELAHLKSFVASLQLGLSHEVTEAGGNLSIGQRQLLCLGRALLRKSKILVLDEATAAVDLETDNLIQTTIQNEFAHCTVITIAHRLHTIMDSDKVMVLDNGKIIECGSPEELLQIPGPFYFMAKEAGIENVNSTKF

Activity [1] | Structure (SMILES) | Activity [2]
inhibitor [+] | CN(C)C(=O)CCSC(SCCC(=O)O)c1cccc(/C=C/c2ccc3ccc(Cl)cc3n2)c1 (stereo not drawn) [MK-571] | 
 | CC[C@]1(O)C[C@@H]2CN(CCc3c([nH]c4ccccc34)[C@@](C(=O)OC)(c3cc4c(cc3OC)N(C)[C@H]3[C@@](O)(C(=O)OC)[C@H](OC(C)=O)[C@]5(CC)C=CCN6CC[C@]43[C@@H]65)C2)C1 [VINBLASTINE] | substrate [+]
 | Cl.Cl.Cl.O[C@@H](COc1cccc2ncccc12)CN1CCN([C@@H]2c3ccccc3[C@@H]3[C@H](c4ccccc42)C3(F)F)CC1 [ZOSUQUIDAR TRIHYDROCHLORIDE] | is not a substrate [-]
